From US12605353B2, “PDIA4 inhibitors and use thereof for inhibiting β-cell pathogenesis and treating diabetes” (Academia Sinica, priority 2019, dated 2026) come the findings set out here.

As usually defined, the IC50 is the concentration at which inhibition is half-maximal. By CC50 is commonly meant the concentration that lowers cell viability or growth by half. In general, EC50 refers to the concentration that produces a half-maximal response.

The structures appear in SMILES notation. Where two headings read alike, the source gives them in different places. Bounds are passed on as bounds.

Series [1] concerns the target T1, PDIA4 (Homo sapiens, UniProt P13667).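 Further: enzymatic activity of PDIA4 read as absorbance at 595 nm, inhibition given as percent decrease relative to vehicle-treated control.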
T1 sequence (P13667 21-645): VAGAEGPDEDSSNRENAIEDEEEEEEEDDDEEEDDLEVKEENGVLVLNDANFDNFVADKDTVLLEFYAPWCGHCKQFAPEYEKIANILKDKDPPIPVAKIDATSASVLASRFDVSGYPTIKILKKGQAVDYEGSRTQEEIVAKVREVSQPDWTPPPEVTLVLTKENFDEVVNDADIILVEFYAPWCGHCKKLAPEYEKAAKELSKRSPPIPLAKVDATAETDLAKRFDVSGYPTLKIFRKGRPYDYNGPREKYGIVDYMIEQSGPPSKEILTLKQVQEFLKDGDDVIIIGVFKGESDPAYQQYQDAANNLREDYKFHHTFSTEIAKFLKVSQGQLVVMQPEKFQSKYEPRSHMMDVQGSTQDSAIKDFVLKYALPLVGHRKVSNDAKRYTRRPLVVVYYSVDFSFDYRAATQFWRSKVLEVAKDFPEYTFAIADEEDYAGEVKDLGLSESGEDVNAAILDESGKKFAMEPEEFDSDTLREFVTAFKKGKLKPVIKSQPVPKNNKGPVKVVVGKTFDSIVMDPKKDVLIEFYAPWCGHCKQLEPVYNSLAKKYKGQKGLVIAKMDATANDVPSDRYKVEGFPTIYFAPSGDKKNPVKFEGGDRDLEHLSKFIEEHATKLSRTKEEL
The experiment in a line: biochemical.
Method: Recombinant PDI proteins PDIA4 (23 pM) was incubated with insulin (0.2 mM) and DTT (0.1 mM) in the presence of vehicle and compounds at the indicated doses for 30 min at 25° C. The mixture was, measured using a SpectraMax i3x reader at 595 nm based on the manufacturer's instructions (Molecular device, CA, USA). Inhibition of the enzymatic activity PDIA4 is calculated by the formula, 100%×(OD595 of vehicle−OD595 of CP)/(OD595 of vehicle) as published previously.

The nature of series [2]: Cell viability test (WST-1) in Min6 cells. The series is classed as cell-based, mouse. The note with it: mouse. Here is the method:
(§1) (A) Effect of drug candidates on insulin secretion in β-cells. Min6 cells were incubated in serum-free oxygen-saturated Krebs-Ringer bicarbonate (KRB) buffer containing high glucose (16.7 mM), CCF642 and drug candidates for 30 min. The supernatants were collected for insulin ELISA assay. (B) Min6 cells were incubated with PBS, CCF642 and drug candidates, respectively, for 24 h. Following PBS washing, WST-1 was added into each well for additional 20 min incubation.
(§2) Min6 cells were cultured at 37° C. in complete medium. Cell cytotoxicity was determined using WST-1 (4-[3-(4-Iodophenyl)-2-(4-nitrophenyl)-2H-5-tetrazolio]-1,3-benzene Disulfonate) according to the manutkturet's guidelines. Briefly, the cells were grown in a […] containing complete medium in the presence of the indicated compounds for 24 h. Following PBS washing, WST-1 was added into each well for additional 20 min incubation. After removing the medium, the cells in the plate were measured with a SpectraMax i3x reader at 450 nm.
A general note: Tetrazolium assays rely on reduction of a dye to a coloured formazan, in cell work by metabolically active cells.

The subject of series [3] is Min6 cells. Nature of the series: Glucose-stimulated insulin secretion in Min6 cells (insulin ELISA). The series is classed as cell-based, mouse. The conditions noted are these: for insulin secretion in β-cells, in words: Min6 β-cells. The procedure: as §1
Min6 cells were grown in complete Dulbecco's modified Eagle medium (DMEM) medium containing 10% fetal bovine serum, 100 units/ml penicillin and 100 µg/ml streptomycin in a 5% CO2 incubator in the presence of 3.3 mM glucose unless indicated otherwise. Min6 cells were pre-incubated in serum-free oxygen-saturated Krebs-Ringer bicarbonate (KRB) buffer containing 3.3 mM glucose at 37° C. for 30 min. The cells (7.5×10^4) were then incubated with KRB buffer containing high glucose (16.7 mM) or low glucose (3.3 mM) for an additional 30 min. The supernatants were collected for insulin ELISA assay.

Series [4] has as its system db/db mice. The experiment in a line: Anti-diabetes effect in db/db mice (blood glucose). The conditions noted are these: CPD 8 2.5 mg/kg, metformin 60 mg/kg; for fasting blood glucose (FBG) / postprandial blood glucose (PBG): sitagliptin 30 mg/kg. The series is classed as in vivo, mouse. The procedure:
(A-B) New-onset diabetes, Lepr^db/db mice, are grouped and treated with PBS vehicle (CTR), sitagliptin (STG, 30 Mg/kg), CPD8 (2.5 mg/kg), and a combination of CPD8 (2.5 mg/kg) and metformin […]) (CPD8+Met) for the indicated time. Fasting blood glucose (FBG (A)) and postprandial blood glucose (PBG (B)) of the mice were monitored. The value (n) is number of mice indicated in parentheses.
Moreover, we examined the in vivo anti-diabetes effect of CPD 8, one of drug candidates for Pdia4 inhibition, in db/db mice, a mouse model of type 2 diabetes. […] PBG in db/db mice (FIG. 4B).

Series [5] deals with Min6 cells. Nature of the series: Cell viability test (WST-1) in Min6 cells. In kind it is cell-based, mouse. Here is the method: as §1, §2
The mark [6] stands for this setting: Table 5, 24 h, WST-1, read-out: CC50.
The mark [7] stands for this setting: Min6, a mouse β-cells, read-out: EC50 values, insulin-releasing action.
The mark [8] stands for this setting: Mus musculus, 0.5 h, Table 5, insulin secretion, Min6 cells, high glucose (16.7 mM), 30 min, read-out: EC50.

Take `C#CC(=O)Nc1cc(OC)c(OCCCN(C(=O)C#C)C(=O)Cc2cccc(C(F)(F)F)c2)cc1C(=O)OC` [58t, methyl 4-methoxy-2-propiolamido-5-(3-(N-(2-(3-(trifluoromethyl)phenyl)acetyl)propiolamido)propoxy)benzoate]: 800 nM corresponded to half-maximal inhibition in series [1] (IC50). Moreover, the CC50 at 24 h is greater than 100000 nM in series [2] (setting [6]) and 64900 nM in series [2] (read-out: CC50 values). For the same compound, the EC50 in series [3] (setting [7]) is 20 nM; in series [3] (setting [8]), 30 nM. The “insulin secretion in β-cells, in words” value in series [3] was “could augment insulin secretion”. The “SI (CC50/EC50)” value in series [3] (Table 5, Min6 cells) is greater than 3333.
On to `C#CC(=O)Nc1cc(OC)c(OC)cc1C(=O)O` [CPD 8, 4,5-dimethoxy-2-propiolamidobenzoic acid], for which it took 4000 nM to reach half-maximal inhibition in series [1] (IC50). In addition, in series [2] (setting [6]), the CC50 at 24 h was greater than 100000 nM. Also, the CC50 at 24 h in series [2] (read-out: CC50 values) is greater than 100000 nM. Besides, in series [4], the “reversal of type 2 diabetes” value is recorded as “can reverse type 2 diabetes”, the “fasting blood glucose (FBG)” value is “significantly decreased” and the “postprandial blood glucose (PBG)” value is listed as “significantly decreased”. Moreover, the EC50 in series [3] (setting [7]) was determined as 60 nM. Moreover, in series [3], the “insulin secretion in β-cells, in words” value is recorded as “could augment insulin secretion”. In series [3] (setting [8]), the EC50 turned out to be 60 nM. For the same compound, in series [3] (Table 5, Min6 cells), the “SI (CC50/EC50)” value is greater than 1666.7.
Consider `C#CC(=O)Nc1cc(OC)c(OCCCN(C(=O)C#C)C(=O)c2cnco2)cc1C(=O)OC` [58v, methyl 4-methoxy-2-propiolamido-5-(3-(N-propioloyloxazole-5-carboxamido)propoxy)benzoate], for which, in series [1], it took 300 nM to reach half-maximal inhibition (IC50). Also, the CC50 at 24 h in series [2] (setting [6]) and in series [2] (read-out: CC50 values) was greater than 100000 nM in each case. Moreover, the EC50 in series [3] (setting [7]) and in series [3] (setting [8]) was 5 nM throughout. Moreover, the “insulin secretion in β-cells, in words” value in series [3] was “could augment insulin secretion”. Moreover, the “SI (CC50/EC50)” value in series [3] (Table 5, Min6 cells) is on record as greater than 20000.
Take `COc1ccc(N2C(=O)/C(=C\c3ccc([N+](=O)[O-])s3)SC2=S)cc1` [CCF642, reference compound]: the cytotoxic concentration (CC50) in series [5] (setting [6]) and in series [5] (read-out: CC50 values) was 23900 nM in each case. For the same compound, the EC50 in series [3] (setting [7]) was 250 nM. Also, the “insulin secretion in β-cells, in words” value in series [3] is given as “could augment insulin secretion”. The “SI (CC50/EC50)” value in series [3] (Table 5, Min6 cells) was 95.6.
On to `N[C@@H](CC(=O)N1CCn2c(nnc2C(F)(F)F)C1)Cc1cc(F)c(F)cc1F` [sitagliptin, reference compound], for which, in series [4], the “fasting blood glucose (FBG)” value is “significantly reduced” and the “postprandial blood glucose (PBG)” value is on record as “significantly reduced”.
In series [1], `CC#CC#CC#CC#CCCC(CO)O[C@@H]1O[C@H](CO)[C@@H](O)[C@H](O)[C@H]1O` (stereo partly shown) [CPD P1, cytopiloyne, reference compound] showed an IC50 of 210000 nM. Besides, the CC50 at 24 h in series [2] (setting [6]) and in series [2] (read-out: CC50 values) was greater than 100000 nM throughout. Moreover, the EC50 in series [3] (setting [7]) and in series [3] (setting [8]) was 1550 nM throughout. Also, the “insulin secretion in β-cells, in words” value in series [3] is “could augment insulin secretion”. Moreover, in series [3] (Table 5, Min6 cells), the “SI (CC50/EC50)” value is greater than 64.5.
In the case of `C#CC(=O)Nc1cc(OC)c(OCCCN(C(=O)C#C)C(=O)Cc2ccccc2C(F)(F)F)cc1C(=O)OC` [58s, methyl 4-methoxy-2-propiolamido-5-(3-(N-(2-(2-(trifluoromethyl)phenyl)acetyl)propiolamido)propoxy)benzoate], the CC50 at 24 h in series [2] (setting [6]) was 64900 nM; in series [2] (read-out: CC50 values) it was greater than 100000 nM. For the same compound, the EC50 in series [3] (setting [7]) was determined as 30 nM; in series [3] (setting [8]), 20 nM. Also, the “insulin secretion in β-cells, in words” value in series [3] is “could augment insulin secretion”.
